Patent US20020151526A1, “Bile-acid prodrugs of L-dopa and their use in the sustained treatment of parkinsonism” (priority 2000, published 2002)

Key:
[1] = target: T1, Human IBAT Transporter (Homo sapiens, UniProt Q12908); assay: Electrogenic transport in Xenopus oocytes expressing IBAT; assay type: cell-based; conditions: relative to glycodeoxycholate, test compound 100 μM
T1 sequence (Q12908 1-348): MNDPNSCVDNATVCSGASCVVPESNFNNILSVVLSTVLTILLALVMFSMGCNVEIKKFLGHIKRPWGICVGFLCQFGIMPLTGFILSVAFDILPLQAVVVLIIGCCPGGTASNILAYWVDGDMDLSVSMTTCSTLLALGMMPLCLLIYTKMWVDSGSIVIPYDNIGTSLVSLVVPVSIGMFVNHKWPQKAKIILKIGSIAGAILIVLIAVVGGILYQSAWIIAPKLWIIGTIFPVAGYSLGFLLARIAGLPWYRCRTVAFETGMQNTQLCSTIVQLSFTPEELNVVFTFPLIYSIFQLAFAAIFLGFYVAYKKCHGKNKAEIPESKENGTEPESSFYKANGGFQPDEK
Procedure: Human IBAT Transporter cDNAs were subcloned into a modified pGEM plasmid that contains 5′ and 3′ untranslated sequences from the Xenopus β-actin gene. These sequences increase RNA stability and protein expression. Plasmid cDNA was linearized and used as template for in vitro transcription (Epicentre Technologies transcription kit, 4:1 methylated:non-methylated GTP).
Xenopus oocyte isolation. Xenopus laevis frogs were anesthetized by immersion in Tricaine ([…] in deionized water) for 15 min. Oocytes were removed and digested in frog ringer solution (90 mM NaCl, 2 mM KCl, 1 mM MgCl2, 10 mM NaHEPES, pH 7.45, no CaCl2) with 1 mg/mL collagenase (Worthington Type 3) for 80-100 min with shaking. The oocytes were washed 6 times, and the buffer changed to frog ringer solution containing CaCl2(1.8 mM). Remaining follicle cells were removed if necessary. Cells were incubated at 16° C., and each oocyte injected with […] RNA in […] solution.
Electrophysiology measurements. Transport currents were measured 2-14 days after injection, using a standard two-electrode electrophysiology set-up (Geneclamp 500 amplifier, Digidata 1320/PCLAMP software and ADInstruments hardware and software were used for signal acquisition). Electrodes ([…]) were microfabricated using a Sutter Instrument puller and filled with 3M KCl. The bath was directly grounded (transporter currents were less than 0.3 μA). Bath flow was controlled by an automated perfusion system (ALA Scientific Instruments, solenoid valves).
For transporter pharmacology, oocytes were clamped at −60 to −90 mV, and continuous current measurements acquired using PowerLab Software and an ADInstruments digitizer. Current signals were lowpass filtered at 20 Hz and acquired at 4-8 Hz. All bath and drug-containing solutions were frog ringers solution containing CaCl2. Drugs were applied for 10-30 seconds until the induced current reached a new steady-state level, followed by a control solution until baseline currents returned to levels that preceded drug application. […]

[2] = cited from earlier work; for half-life: human, in vivo

| Compound | % Max. (GDC) response [1] [%] | oral bioavailability of levodopa ([2]; from conventional formulations of levodopa/carbidopa (e.g. Sinemet)) | half-life [2] [h] | administered dose reaching the CNS intact ([2]; in patients) |
| --- | --- | --- | --- | --- |
| CC(CCC(=O)NC(Cc1ccc(O)c(O)c1)C(=O)O)C1CCC2C3C(O)CC4CC(O)CCC4(C)C3CC(O)C12C (stereo not shown) [(101), Cholyl-DOPA] | 0 |  |  |  |
| C[C@H](CCC(=O)N[C@@H](Cc1ccc2oc(=O)oc2c1)C(=O)O)[C@H]1CC[C@H]2[C@@H]3[C@H](O)C[C@@H]4C[C@H](O)CC[C@]4(C)[C@H]3C[C@H](O)[C@]12C [(104), Cholyl-Dopa-(3,4-carbonate)] | 25 |  |  |  |
| N[C@@H](Cc1ccc(O)c(O)c1)C(=O)O [levodopa, L-dihydroxyphenylalanine] |  | 84-99% | ~2 | less than 1% |
| C[C@@](Cc1ccc(O)c(O)c1)(NN)C(=O)O [carbidopa] |  |  | ~2 |  |
| Cholyl-DOPA-(4-pivaloyloxymethyl) [(102)] | 104 |  |  |  |
